Assay results as given in patent US20080014272A1, “Compositions and Methods for Treatment of Chronic Pain Conditions” (priority 2006, published 2008).

Legend:
[1] = Duration of analgesic efficacy and plasma bicifadine levels in acute pain studies; format: in vivo, human; conditions: bicifadine HCl, unit doses about 200 mg, 400 mg, or 600 mg; acute dental pain and bunionectomy pain studies
Procedure: Duration of analgesic efficacy of bicifadine in acute dental pain studies was estimated using a “last observation carried forward” (LOCF) statistical method, and was projected to last up to 6 hours, or even up to 12 hours (see, e.g., Czobor P., et al., Stark J., Beer G., Petti S., Lippa A., Brown J., Beer B.: A Double-Blind, Placebo Controlled Randomized Study of DOV220,075 (bicifadine) SR and Codeine 60 mg in the Treatment of Post-Operative Dental Pain. Presented at the 2nd Annual Scientific Meeting Mar. 20-23, 2003 Chicago, Ill. American Pain Society Abstract Database at http://www.ampainsoc.org/abstract/2003/data/index.html. (Poster #915)); Czobor P., Stark J., Beer G., Brown J., Sunshine A., Konery S., Turpin M., Olson N., Otero A., Lippa A., Beer B.: A two center double-blind, placebo-controlled randomized study of DOV 220,075 (bicifadine) SR and Tramadol 100 mg in the treatment of post-operative dental pain. The Journal of Pain, 2004: 5(1), Supplement 1, p 59. Presented at the Joint APS and Canadian Pain Society Annual Meeting (23rd APS Annual Scientific Meeting) May 6-9, 2004, Vancouver, BC Canada. American Pain Society Abstract Database at http://www.ampainsoc.org/abstract/2004/data/index.html (Poster #801); each incorporated herein by reference). […]

[2] = Monoiodoacetamide (MIA)-induced osteoarthritis in rats, hind paw weight distribution; format: in vivo, Male Wistar rats; conditions: oral gavage (PO), Day 14 post MIA injection, 1 and 2 hours post-administration; bicifadine 5, 10, 20, 40 or 60 mg/kg, morphine 60 mg/kg; FIG. 1
Procedure: Animals were fed standard rat chow with water available ad libitum.
The rats were anesthetized with 5% volume/volume (“v/v”) isoflurane gas and maintained with 2% v/v isoflurane gas. […] MIA was dissolved in physiologic saline and administered in a volume of 50 μL. The contralateral control knee was injected with 50 μL of physiologic saline. Administration of isoflurane gas was discontinued, and the rats became fully conscious about 5 minutes later.
Shifts in hind paw weight distribution from the right to the left hind paws supporting the right (arthritic) and the left (contralateral control) hind leg knee joints were utilized as an index of joint pain and as a measure of compound efficacy. An incapacitance tester (Model 2KG, Linton Instrumentation, UK) was employed for determination of hind paw weight distribution.
The acute dosing paradigm used herein relates to osteoarthritis signs such as mobility and joint function and osteoarthritis symptoms such as joint pain.

[3] = Visual analog scale (VAS) of osteoarthritis pain in human osteoarthritis subjects; format: in vivo; conditions: 400 mg bicifadine and/or 800 mg ibuprofen twice daily for seven days; baseline to 3 hours post dose on final day; FIG. 2
Procedure: (§1) 23 adult human subjects with clinically confirmed osteoarthritis (OA) of the hip or knee were selected based on (1) a finding of OA through clinical analysis of hip or knee pain for at least six months, (2) stiffness symptoms that persisted for more than 30 minutes (4) crepitus and (5) score of >40 mm on the visual analog scale (VAS). […]
(§2) Each patient's pain and function levels was rated just prior to administration of the first dose in each treatment period to establish a baseline and three hours after administration of the final dose of each treatment period. Subjects were evaluated according to the visual analog scale (FIG. 2), the Western Ontario and MacMaster Universities Osteoarthritis Index (WOMAC) (FIG. 3) and a global assessment score (FIG. 4).
For the visual analog scale, each subject was asked the following question: “Draw a vertical line on the scale to indicate the average amount osteoarthritis pain you have in your index hip or knee in the prior 24 h period. • No Pain [______] Worst Pain You Can Imagine 100 mm The length of the line from “No Pain” to the vertical line drawn by the patient was then measured to determine the VAS measurement.

[4] = WOMAC Osteoarthritis Index in human osteoarthritis subjects; format: in vivo; conditions: 400 mg bicifadine and/or 800 mg ibuprofen twice daily for seven days; 3 h post-dose on last day; FIG. 3
Procedure: as §1, §2
Subjects were also evaluated according to the Western Ontario and MacMaster Universities Osteoarthritis Index (WOMAC) and asked the following series of questions: […]

[5] = Global Assessment of Study Medication in human osteoarthritis subjects; format: in vivo; conditions: 400 mg bicifadine and/or 800 mg ibuprofen twice daily for seven days; 3 h post-dose on last day; scale 0-4; FIG. 4
Procedure: 23 adult human subjects with clinically confirmed osteoarthritis (OA) of the hip or knee were selected based on (1) a finding of OA through clinical analysis of hip or knee pain for at least six months, (2) stiffness symptoms that persisted for more than 30 minutes (4) crepitus and (5) score of >40 mm on the visual analog scale (VAS). […] (Altman R. Asch E, Bloch D, Bole G, Borenstein D, Brandt K, et al. The American College of Rheumatology criteria for the classification and reporting of osteoarthritis of the knee. Arthritis Rheum 1986; 29:1039-1049) The subjects were randomized to a sequence of 400 mg of bicifadine twice daily for seven days (B), ibuprofen 800 mg twice daily for seven days (I), placebo twice daily for seven days (P), or 400 mg bicifadine and 800 mg ibuprofen twice daily for seven days (B+I) as shown in Table 3. […]
as §2
Subjects were further evaluated for a global assessment and were asked the following question: […]

[6] = acute dental pain; Stern et al. 2005; cited from earlier work
[7] = Use of rescue medication in acute dental pain clinical trial (Stern et al.); format: in vivo, human
Procedure: These conclusions are further substantiated by the use of rescue medication by subjects in the Stem et al. acute dental pain studies. Table I below summarizes information on the use of rescue medication for patients who took rescue medication among the various treatment groups in the clinical trial reported by Stern et al. (id.) A nonparametric analysis (Median Test) was conducted to evaluate the median latency to rescue medication.
Survival analysis (Kaplan-Meier method, 95% confidence) was performed to compare the treatment groups with regard to time-to-rescue medication. […] The analysis yielded a statistically significant difference among the treatment groups (Log-Rank test, Chi-square=26.9, df=4, P=0.0001). […] In view of the foregoing evidence, the present disclosure documenting efficacy of a reduced, bi-daily or less frequent dosing regimen of bicifadine to yield effective treatment of chronic pain are unexpected. […] It is a surprising benefit, therefore, that a dosing regimen consisting of only one or two doses of bicifadine effectively alleviates symptoms of chronic pain over an extended period. The extended period of efficacy of the novel compositions and dosage forms of the invention provide significant relief of chronic pain symptoms over a period of at least 8 hours, or at least 12 hours, often at least 18 hours, and up to 24 hours or longer.

| SMILES | Period of analgesic efficacy for effectively treating acute pain [1] | Effect on osteoarthritis-related pain (change in hind paw weight distribution) [2] | Reduction of OA pain as measured by the visual analog scale [3] | Improvement of functioning as determined by the WOMAC osteoarthritis index [4] | Global assessment score of study medication [5] | Plasma bicifadine levels associated with the greatest pain relief [6] [ng/mL] | Plasma drug levels associated with significant analgesic efficacy [6] [ng/mL] | Plasma drug levels not associated with significant analgesic effects [6] [ng/mL] | Time-to-rescue medication vs placebo (Kaplan-Meier survival analysis, Log-Rank test) ([7]; 100-mg, Chi-square=18.7, df=1, P=0.0001) | Median Time to Rescue Medication ([7]; single dose 100 mg) [h] | Used Rescue Medication (N) No ([7]; single dose 100 mg) | Used Rescue Medication (N) Yes ([7]; single dose 100 mg) |
| --- | --- | --- | --- | --- | --- | --- | --- | --- | --- | --- | --- | --- |
| Cc1ccc(C23CNCC2C3)cc1 (racemic) [bicifadine, (±)-1-(4-methylphenyl)-3-azabicyclo[3.1.0]hexane] | up to 6 hours | no significant effect | no different than treatment with placebo | no better than placebo | marginally better than treatment with either placebo or ibuprofen alone | > 1000 | 500 to 1000 | ≤ 500 |  |  |  |  |
| COc1cccc(C2(O)CCCCC2CN(C)C)c1 (centres unmarked) [Tramadol] |  |  |  |  |  |  |  |  | significantly less likely to use rescue medication | 2.45 | 24 | 85 |
| CC(C)Cc1ccc(C(C)C(=O)O)cc1 (centres unmarked) [ibuprofen, reference compound] |  |  | no different than treatment with placebo | no better than placebo |  |  |  |  |  |  |  |  |
